According to patent publication US6479070B1, “Compositions containing pinolenic acid and its use as a health component” (Unilever Patent Holdings, priority 1999, dated 2002):

Test system: PMA stimulated PGE2 Levels in Human Skin Fibroblasts
Conditions: primary human foreskin fibroblasts, pinolenic acid even at levels of 10 ng/ml, 24 h pre-incubation
Experimental: A reduction of the levels of ICAM and PGE2 is indicative for the anti-inflammatory effect. Primary human foreskin fibroblasts at passage 2 (P2) were seeded into 96-well plates at 10000 cells/well and maintained for 24 hours in an atmosphere of 5% carbon dioxide in Dulbeccos Modified Eagles Medium (DMEM) supplemented with 10% foetal calf serum. […] PMA represents an external stressor which induces oxidative stress and inflammatory responses in cells. The fibroblasts/media were then analysed as described below immediately or snap frozen in liquid nitrogen and stored at −70° C. for future analysis. […] PGE2 levels in the medium were determined with a Biotrak PGE2 immunoassay kit (Amersham, UK). The assay is based on the competition between unlabelled PGE2 in the sample and a fixed quantity of horseradish peroxidase labelled PGE2 for a limited amount of fixed PGE2 specific antibody. Concentrations of unlabelled sample PGE2 are determined according to a standard curve which was obtained at the same time.

CCCCC/C=C\C/C=C\CC/C=C\CCCC(=O)O [Pinolenic acid, 5,9,12 C18:3 fatty acid]
inflammatory response as measured by PGE2 production: dramatically reduces the inflammatory response
